Experimental findings from patent US11390604B2 (Hoffmann-La Roche Inc., priority 2019, dated 2022) are described below.

SMILES strings stand for the structures. Structures can show the parent of a compound that is named as a salt. Where two headings read alike, the source gives them in different places.

This test concerns Acinetobacter baumannii ATCC 17961. Put plainly: Antimicrobial susceptibility testing: 90% growth inhibitory concentration (IC90) determination. In kind it is cell-based. In outline: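 Growth was followed kinetically by OD600 at 20-min intervals for 16 h at 35±2 °C, with ~5×10^5 CFU/ml in Iso-Sensitest broth. Compounds were tested as twofold dilutions (e.g. 50–0.097 μM final). The concentration giving 90% inhibition of log-phase growth was reported.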

Setting [1] is: ATCC17961, Acinetobacter baumannii ATCC 17961, Iso-Sensitest broth, read-out: ATCC 17961 IC90.
The mark [2] stands for this setting: Acinetobacter baumannii, ATCC17961, read-out: ATCC 17961 IC90, Acinetobacter baumannii ATCC 17961, Iso-Sensitest broth.

One may read the IC90 as the point of the concentration-response curve where the effect stands at 90%.

Turning to `Cn1c(-c2cn(Cc3cccnc3)nc2C(F)(F)F)cnc1C(=O)Nc1ccc(C(=O)N2CCN(C(=O)C3(O)CCCNC3)CC2)c(Cl)c1` (stereo not shown) [Example 75, N-[3-chloro-4-[4-(3-hydroxypiperidine-3-carbonyl)piperazine-1-carbonyl]phenyl]-1-methyl-5-[1-(pyridin-3-ylmethyl)-3-(trifluoromethyl)pyrazol-4-yl]imidazole-2-carboxamide;hydrochloride], the concentration for an effect of 90% (IC90) under setting [1] turned out to be 542 nM.
Consider `CCc1cc(NC(=O)c2ncc(-c3cn(CC#N)nc3C(F)(F)F)n2C)ccc1C(=O)N1CCN(C(=O)N2CCC(CN)C2)CC1` (stereo not shown) [Example 138, N-[4-[4-[3-(aminomethyl)pyrrolidine-1-carbonyl]piperazine-1-carbonyl]-3-ethylphenyl]-5-[1-(cyanomethyl)-3-(trifluoromethyl)pyrazol-4-yl]-1-methylimidazole-2-carboxamide;formic acid], for which the 90% effect concentration (IC90) under setting [1] is 888 nM.
As for `Cn1c(-c2cn(CC(F)F)nc2C(F)(F)F)cnc1C(=O)Nc1ccc(S(=O)(=O)N2CCN(C(=O)[C@H]3CC[C@@H](N)C3)CC2)c(Cl)c1` [Example 211, N-(4-((4-((1S,3R)-3-aminocyclopentane-1-carbonyl)piperazin-1-yl)sulfonyl)-3-chlorophenyl)-5-(1-(2,2-difluoroethyl)-3-(trifluoromethyl)-1H-pyrazol-4-yl)-1-methyl-1H-imidazole-2-carboxamide hydrochloride], under setting [1], the IC90 was determined as 231 nM.
On the same count and under the same terms, with `Cn1c(-c2cn(C3CC3)nc2C(F)(F)F)cnc1C(=O)Nc1ccc(C(=O)N2CCC3(CCNCC3)CC2)c(Cl)c1` [Example 249, N-(3-chloro-4-(3,9-diazaspiro[5.5]undecane-3-carbonyl)phenyl)-5-(1-cyclopropyl-3-(trifluoromethyl)-1H-pyrazol-4-yl)-1-methyl-1H-imidazole-2-carboxamide hydrochloride] the figure was 300 nM; with `Cn1c(-c2cn(C3CC3(F)F)nc2C(F)(F)F)cnc1C(=O)Nc1ccc(C(=O)N2CCN(C(=O)C3CCNCC3)CC2)c(Cl)c1` (stereo not shown) [Example 267, N-(3-chloro-4-(4-(piperidine-4-carbonyl)piperazine-1-carbonyl)phenyl)-5-(1-(2,2-difluorocyclopropyl)-3-(trifluoromethyl)-1H-pyrazol-4-yl)-1-methyl-1H-imidazole-2-carboxamide formate], 332 nM.
Regarding `C#CCn1cc(-c2cnc(C(=O)Nc3ccc(C(=O)N4CCN(C(=O)C5(O)CCNCC5)CC4)c(Cl)c3)n2C)c(C(F)(F)F)n1` [Example 39, N-[3-chloro-4-[4-(4-hydroxypiperidine-4-carbonyl)piperazine-1-carbonyl]phenyl]-1-methyl-5-[1-prop-2-ynyl-3-(trifluoromethyl)pyrazol-4-yl]imidazole-2-carboxamide hydrochloride], the IC90 under setting [1] was found to be 257 nM.
In the case of `CCn1cc(-c2cnc(C(=O)Nc3ccc(C(=O)N4CCN(C(=O)CN)CC4)c(Cl)c3)n2C)c(C(F)(F)F)n1` [Example 330, N-[4-[4-(2-aminoacetyl)piperazine-1-carbonyl]-3-chlorophenyl]-5-[1-ethyl-3-(trifluoromethyl)pyrazol-4-yl]-1-methylimidazole-2-carboxamide;hydrochloride], under setting [1], the IC90 was determined as 421 nM.
`Cn1c(-c2cn(C3CC3)nc2C(F)(F)F)cnc1C(=O)Nc1ccc(C(=O)N2CCN(S(=O)(=O)N3CCNCC3)CC2)c(Cl)c1` [Example 338, N-(3-chloro-4-(4-(piperazin-1-ylsulfonyl)piperazine-1-carbonyl)phenyl)-5-(1-cyclopropyl-3-(trifluoromethyl)-1H-pyrazol-4-yl)-1-methyl-1H-imidazole-2-carboxamide formate]: under setting [1], the IC90 was 427 nM.
Consider `Cc1cc(NC(=O)c2ncc(-c3c[nH]nc3C(F)(F)F)n2C)ccc1C(=O)NCCCCCN` [Example 50, N-(4-((5-aminopentyl)carbamoyl)-3-methylphenyl)-1-methyl-5-(3-(trifluoromethyl)-1H-pyrazol-4-yl)-1H-imidazole-2-carboxamide hydrochloride], for which the concentration for an effect of 90% (IC90) under setting [1] turned out to be 4680 nM.
Turning to `CC(C)Cn1cc(-c2cnc(C(=O)Nc3ccc(C(=O)N4CCN(C(=O)N[C@H]5C[C@@H](N)C5)CC4)c(Cl)c3)n2C)c(C(F)(F)F)n1` [Example 292, rac-N-((1s,3s)-3-aminocyclobutyl)-4-(2-chloro-4-(5-(1-isobutyl-3-(trifluoromethyl)-1H-pyrazol-4-yl)-1-methyl-1H-imidazole-2-carboxamido)benzoyl)piperazine-1-carboxamide hydrochloride], the IC90 under setting [2] was 361 nM.
For `Cc1cc(NC(=O)c2ncc(-c3c[nH]nc3C(F)(F)F)n2C)ccc1C(=O)N1CCN(C(=O)C2CCNCC2)CC1` [Example 29, 1-Methyl-N-(3-methyl-4-(4-(piperidine-4-carbonyl)piperazine-1-carbonyl)phenyl)-5-(3-(trifluoromethyl)-1H-pyrazol-4-yl)-1H-imidazole-2-carboxamide dihydrochloride], the concentration for an effect of 90% (IC90) under setting [1] came out at 1450 nM.
For the compound `CCc1cc(NC(=O)c2ncc(-c3cn(CC(F)F)nc3C(F)(F)F)n2C)ccc1C(=O)N1CCN(C(=O)C2(O)CCNCC2)CC1` [Example 155, 5-[1-(2,2-difluoroethyl)-3-(trifluoromethyl)pyrazol-4-yl]-N-[3-ethyl-4-[4-(4-hydroxypiperidine-4-carbonyl)piperazine-1-carbonyl]phenyl]-1-methylimidazole-2-carboxamide;formic acid], the concentration for an effect of 90% (IC90) under setting [1] amounted to 1140 nM.
The same measure, in the same setting: with `C#CCn1cc(-c2cnc(C(=O)Nc3ccc(C(=O)N4CCN(C(=O)N5CCC[C@H](N)C5)CC4)c(Cl)c3)n2C)c(C(F)(F)F)n1` [Example 85, N-[4-[4-[(3S)-3-aminopiperidine-1-carbonyl]piperazine-1-carbonyl]-3-chlorophenyl]-1-methyl-5-[1-prop-2-ynyl-3-(trifluoromethyl)pyrazol-4-yl]imidazole-2-carboxamide] the figure was 170 nM.
Take `Cn1c(-c2cn(CCOC(F)(F)F)nc2C(F)(F)F)cnc1C(=O)Nc1ccc(C(=O)N2CCN(C(=O)C3CCNCC3)CC2)c(Cl)c1` [Example 332, N-(3-chloro-4-(4-(piperidine-4-carbonyl)piperazine-1-carbonyl)phenyl)-1-methyl-5-(1-(2-(trifluoromethoxy)ethyl)-3-(trifluoromethyl)-1H-pyrazol-4-yl)-1H-imidazole-2-carboxamide hydrochloride]: the IC90 under setting [1] came out at 422 nM.
Regarding `Cn1c(-c2cn(CC3CC3(F)F)nc2C(F)(F)F)cnc1C(=O)Nc1ccc(C(=O)N2CCN(C(=O)N[C@H]3C[C@@H](N)C3)CC2)c(Cl)c1` (mixture of isomers) [Example 254, rac-N-((1s,3s)-3-aminocyclobutyl)-4-(2-chloro-4-(5-(1-((2,2-difluorocyclopropyl)methyl)-3-(trifluoromethyl)-1H-pyrazol-4-yl)-1-methyl-1H-imidazole-2-carboxamido)benzoyl)piperazine-1-carboxamide hydrochloride], the IC90 under setting [2] came out at 311 nM.
On to `C#CCn1cc(-c2cnc(C(=O)Nc3ccc(C(=O)N[C@H]4[C@@H]5CN(C(=O)N[C@@H]6CNC[C@H]6O)C[C@@H]54)c(Cl)c3)n2C)c(C(F)(F)F)n1` [Example 384, (1R,5S,6s)-6-(2-chloro-4-(1-methyl-5-(1-(prop-2-yn-1-yl)-3-(trifluoromethyl)-1H-pyrazol-4-yl)-1H-imidazole-2-carboxamido)benzamido)-N-((3R,4R)-4-hydroxypyrrolidin-3-yl)-3-azabicyclo[3.1.0]hexane-3-carboxamide formate], for which, under setting [1], the IC90 was found to be 64 nM.
